Reference: patent US20250122239A1 (K BENHAVNS UNIVERSITET, published 2025)
Ends that are not written are not given here.

Columns and labels:
[1] = system: lean mice; test: food intake in chow fed lean mice, shortened GLP-1-NT combination peptides (Example 9); assay type: in vivo; details: 100 nmol/kg, single SC injection, chow fed lean mice fasted overnight
Method: Chow fed lean mice fasted overnight were injected once SC in the beginning of the light cycle and food returned. Food intake measured continuously after injection in an indirect calorimetry system. Food intake was analysed using repeated measures two-way ANOVA followed by a Tukey's post hoc test.

[2] = molecular target: human neurotensin receptor NTSR1 (pCMVhNTSR 1, transiently expressed in HEK293 cells) (human, UniProt P30989 1-418); test: cell-based or functional assay
human neurotensin receptor NTSR1 (pCMVhNTSR 1, transiently expressed in HEK293 cells), sequence (P30989 whole entry): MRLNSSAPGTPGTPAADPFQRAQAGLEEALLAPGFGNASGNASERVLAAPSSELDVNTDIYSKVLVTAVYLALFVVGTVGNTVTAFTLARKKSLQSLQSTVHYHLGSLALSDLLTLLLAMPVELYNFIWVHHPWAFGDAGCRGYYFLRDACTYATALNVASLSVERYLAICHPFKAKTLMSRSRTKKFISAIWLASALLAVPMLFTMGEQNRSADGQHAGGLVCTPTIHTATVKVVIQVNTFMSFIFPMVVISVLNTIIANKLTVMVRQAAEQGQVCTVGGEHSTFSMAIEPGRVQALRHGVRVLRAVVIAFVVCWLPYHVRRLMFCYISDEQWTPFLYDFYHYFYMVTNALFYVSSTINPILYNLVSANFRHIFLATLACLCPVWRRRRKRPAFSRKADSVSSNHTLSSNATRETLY

Row | Molecule | food intake in comparison to saline [1] | inositol phosphate (IP) accumulation, LogEC50 [2]
1 | HAEGTFTSDVSSYLEGQELYENKPRRPYIL-acid (HAEGTFTSDVSSYLEGQELYENKPRRPYIL-OH) [Peptide 9] | p<0.05 peptide 9 vs. saline | –
2 | HAEFTFTSDVSSYLEGQKKGGELYENKPRRPYIL-acid (HAEFTFTSDVSSYLEGQKKGGELYENKPRRPYIL-OH) [Peptide 10] | p<0.001 peptide 10 vs. saline | –
3 | HAEGTFTSDVSSYLEGQAAKEFIAWLVKGRLYENKPRRPYIL [GLP-1/NT fusion peptide (SEQ ID NO: 45)] | – | -8.5
